Format in all cases: biochemical
In one test the target is TYK2 (Homo sapiens (Human), UniProt P29597). The test can be described thus: JAK Caliper Enzyme Assay at 1 mM ATP, TYK2. A digest of the protocol: (§1)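 Peptide phosphorylation by recombinant human kinase domain, 1 mM ATP, room temperature, EDTA-terminated, detected by microfluidic mobility shift; % effect normalised to DMSO baseline.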
Another test addresses JAK1 (Homo sapiens (Human), UniProt P23458). The test can be described thus: JAK Caliper Enzyme Assay at 1 mM ATP, JAK1. The gist of the method: (§2)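 Recombinant human kinase domains phosphorylated a fluorescent synthetic peptide at room temperature, with enzyme level and time tuned to 20% to 30% conversion; EDTA stop buffer ended reactions. Mobility-shift separation gave percent product from peak heights, normalised to DMSO and positive controls, and IC50s came from concentration–effect curves.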

A further test concerns the target JAK3 (Homo sapiens (Human), UniProt P52333). Put plainly: JAK Caliper Enzyme Assay at 1 mM ATP, JAK3. The gist of the method: as §2
A further test concerns the target JAK2 (Homo sapiens (Human), UniProt O60674). The test can be described thus: JAK Caliper Enzyme Assay at 1 mM ATP, JAK2. The gist of the method:
as §1

Molecules are shown by their SMILES. pIC50: −log10 of the molar value.

The pIC50 is the negative decadic logarithm of the IC50, by convention in mol/L.

JAK2, sequence (O60674 849-1124): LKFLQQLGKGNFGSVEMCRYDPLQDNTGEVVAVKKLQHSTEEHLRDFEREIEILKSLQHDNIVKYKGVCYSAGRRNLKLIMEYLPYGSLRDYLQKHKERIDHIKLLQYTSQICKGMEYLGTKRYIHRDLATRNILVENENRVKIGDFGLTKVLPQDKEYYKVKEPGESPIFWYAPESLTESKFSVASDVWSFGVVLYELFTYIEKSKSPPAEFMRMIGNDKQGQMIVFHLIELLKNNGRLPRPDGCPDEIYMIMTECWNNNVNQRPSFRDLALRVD
TYK2, sequence (P29597 897-1176): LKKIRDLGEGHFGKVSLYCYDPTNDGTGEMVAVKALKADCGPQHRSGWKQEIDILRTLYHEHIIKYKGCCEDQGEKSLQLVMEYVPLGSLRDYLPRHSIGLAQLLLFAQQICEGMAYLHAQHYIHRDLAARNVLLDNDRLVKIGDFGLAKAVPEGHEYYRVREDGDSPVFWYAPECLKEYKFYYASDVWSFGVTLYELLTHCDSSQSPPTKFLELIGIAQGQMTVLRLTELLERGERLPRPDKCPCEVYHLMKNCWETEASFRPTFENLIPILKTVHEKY
JAK1, sequence (P23458 875-1153): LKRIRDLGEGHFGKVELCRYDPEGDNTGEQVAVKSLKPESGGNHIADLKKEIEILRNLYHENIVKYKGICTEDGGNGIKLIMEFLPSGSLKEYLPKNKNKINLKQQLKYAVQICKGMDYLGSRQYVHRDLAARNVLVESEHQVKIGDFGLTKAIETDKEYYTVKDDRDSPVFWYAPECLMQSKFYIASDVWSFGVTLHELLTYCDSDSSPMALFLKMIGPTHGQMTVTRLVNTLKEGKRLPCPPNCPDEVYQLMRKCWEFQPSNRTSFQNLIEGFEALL
JAK3, sequence (P52333 822-1111): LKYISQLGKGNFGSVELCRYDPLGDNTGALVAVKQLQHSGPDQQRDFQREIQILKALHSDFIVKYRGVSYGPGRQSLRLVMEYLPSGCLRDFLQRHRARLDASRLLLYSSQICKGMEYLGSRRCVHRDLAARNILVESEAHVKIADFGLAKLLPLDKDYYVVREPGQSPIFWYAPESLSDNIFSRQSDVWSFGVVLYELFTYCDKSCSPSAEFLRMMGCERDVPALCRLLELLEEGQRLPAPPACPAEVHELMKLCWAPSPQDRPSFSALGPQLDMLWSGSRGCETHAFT

`Cc1n[nH]cc1-c1cc2ncccc2c(-c2ccn(C3(CC#N)CN(S(C)(=O)=O)C3)n2)n1` [Example 88, [3-{3-[7-(3-methyl-1H-pyrazol-4-yl)-1,6-naphthyridin-5-yl]-1H-pyrazol-1-yl}-1-(methylsulfonyl)azetidin-3-yl]acetonitrile]: the pIC50 on TYK2 was 7.22; on JAK1 it was 5.79; at JAK3, below 5.00; at JAK2 it was 6.06.

`Cc1n[nH]cc1-c1cc2ncccc2c(-c2ccn([C@]3(CC#N)C[C@@H](C#N)C3)n2)n1` [Example 89, trans-3-(cyanomethyl)-3-{3-[7-(3-methyl-1H-pyrazol-4-yl)-1,6-naphthyridin-5-yl]-1H-pyrazol-1-yl}cyclobutanecarbonitrile]: the negative-log IC50 (pIC50) is 7.05 on TYK2, 5.88 at JAK1, below 5.00 at JAK3 and 6.11 on JAK2.

Turning to `Cc1n[nH]cc1-c1cc2ncccc2c(-c2ccn([C@]3(CC#N)C[C@H](C#N)C3)n2)n1` [Example 90, cis-3-(cyanomethyl)-3-{3-[7-(3-methyl-1H-pyrazol-4-yl)-1,6-naphthyridin-5-yl]-1H-pyrazol-1-yl}cyclobutanecarbonitrile], the pIC50 on TYK2 was 7.49; at JAK1, 6.57; on JAK3, below 5.00; on JAK2, 6.90.

With `N#CC[C@]1(n2ccc(-c3nc(-c4cn[nH]c4CO)cc4ncccc34)n2)C[C@H](C#N)C1` [Example 91, trans-3-(cyanomethyl)-3-(3-{7-[5-(hydroxymethyl)-1H-pyrazol-4-yl]-1,6-naphthyridin-5-yl}-1H-pyrazol-1-yl)cyclobutanecarbonitrile], the negative logarithm of the IC50 (pIC50) is 7.47 at TYK2, 6.25 on JAK1, below 5.00 on JAK3 and 6.80 on JAK2.

As to `N#CC[C@]1(n2ccc(-c3nc(-c4cn[nH]c4CO)cc4ncccc34)n2)C[C@@H](C#N)C1` [Example 92, cis-3-(cyanomethyl)-3-(3-{7-[5-(hydroxymethyl)-1H-pyrazol-4-yl]-1,6-naphthyridin-5-yl}-1H-pyrazol-1-yl)cyclobutanecarbonitrile], the negative logarithm of the IC50 (pIC50) is 8.05 at TYK2, 7.20 at JAK1, 5.73 at JAK3 and 7.66 on JAK2.

For `CS(=O)(=O)N1CC(CC#N)(n2ccc(-c3nc(-c4c[nH]nc4N)cc4ncccc34)n2)C1` [Example 93, [3-{3-[7-(3-amino-1H-pyrazol-4-yl)-1,6-naphthyridin-5-yl]-1H-pyrazol-1-yl}-1-(methylsulfonyl)azetidin-3-yl]acetonitrile], the pIC50 was 8.15 on TYK2, 6.92 at JAK1, 5.30 on JAK3 and 7.34 on JAK2.

Consider `CCN1CC(CC#N)(n2ccc(-c3nc(-c4c[nH]nc4N)cc4ncccc34)n2)C1` [Example 94, (3-{3-[7-(3-amino-1H-pyrazol-4-yl)-1,6-naphthyridin-5-yl]-1H-pyrazol-1-yl}-1-ethylazetidin-3-yl)acetonitrile], for which the negative-log IC50 (pIC50) on TYK2 is 7.03; at JAK1 it was 5.68; at JAK3, below 5.00; on JAK2 it was 6.03.

In the case of `CO[C@H]1C[C@](CC#N)(n2ccc(-c3nc(-c4c[nH]nc4N)cc4ncccc34)n2)C1` [Example 95, (trans-1-{3-[7-(3-amino-1H-pyrazol-4-yl)-1,6-naphthyridin-5-yl]-1H-pyrazol-1-yl}-3-methoxycyclobutyl)acetonitrile], the pIC50 on TYK2 was 7.66; on JAK1, 6.00; at JAK3, below 5.00; on JAK2, 6.45.

On to `CO[C@H]1C[C@](CC#N)(n2ccc(-c3nc(-c4c[nH]nc4N)cc4ncccc34)n2)C1` [Example 96, (cis-1-{3-[7-(3-amino-1H-pyrazol-4-yl)-1,6-naphthyridin-5-yl]-1H-pyrazol-1-yl}-3-methoxycyclobutyl)acetonitrile], for which the pIC50 was 7.51 at TYK2, 6.10 at JAK1, below 5.00 on JAK3 and 6.61 at JAK2.

`N#CC[C@]1(n2ccc(-c3nc(-c4c[nH]nc4N)cc4ncccc34)n2)C[C@@H](C#N)C1` [Example 97, cis-3-{3-[7-(3-amino-1H-pyrazol-4-yl)-1,6-naphthyridin-5-yl]-1H-pyrazol-1-yl}-3-(cyanomethyl)cyclobutanecarbonitrile]: the pIC50 is 8.30 on TYK2, 7.92 at JAK1, 6.13 on JAK3 and 8.22 at JAK2.

In the case of `N#CC[C@]1(n2ccc(-c3nc(-c4c[nH]nc4N)cc4ncccc34)n2)C[C@H](C#N)C1` [Example 98, trans-3-{3-[7-(3-amino-1H-pyrazol-4-yl)-1,6-naphthyridin-5-yl]-1H-pyrazol-1-yl}-3-(cyanomethyl)cyclobutanecarbonitrile], the pIC50 is 8.10 on TYK2, 7.14 at JAK1, 5.28 at JAK3 and 7.48 on JAK2.

With `Cn1cc(-c2cc3ncccc3c(-c3ccn(C4(CC#N)CN(CC(F)(F)F)C4)n3)n2)cn1` [Example 99, [3-{3-[7-(1-methyl-1H-pyrazol-4-yl)-1,6-naphthyridin-5-yl]-1H-pyrazol-1-yl}-1-(2,2,2-trifluoroethyl)azetidin-3-yl]acetonitrile], the pIC50 is 7.80 at TYK2, 6.25 at JAK1, below 5.00 at JAK3 and 6.88 at JAK2.

With `Cn1cc(-c2cc3ncccc3c(-c3ccn(C4(CC#N)CN(CC#N)C4)n3)n2)cn1` [Example 100, 2,2′-(3-{3-[7-(1-methyl-1H-pyrazol-4-yl)-1,6-naphthyridin-5-yl]-1H-pyrazol-1-yl}azetidine-1,3-diyl)diacetonitrile], the pIC50 was 7.85 at TYK2, 6.37 on JAK1, below 5.00 at JAK3 and 7.15 at JAK2.

Turning to `Cn1cc(-c2cc3ncccc3c(-c3ccn([C@]4(CC#N)C[C@@H](C#N)C4)n3)n2)cn1` [Example 102, trans-3-(cyanomethyl)-3-{3-[7-(1-methyl-1H-pyrazol-4-yl)-1,6-naphthyridin-5-yl]-1H-pyrazol-1-yl}cyclobutanecarbonitrile], the pIC50 on TYK2 is 7.77; on JAK1, 6.23; on JAK3, 5.02; at JAK2 it was 7.05.

Regarding `Cn1cc(-c2cc3ncccc3c(-c3ccn(C4(CC#N)CN(S(C)(=O)=O)C4)n3)n2)cn1` [Example 104, [3-{3-[7-(1-methyl-1H-pyrazol-4-yl)-1,6-naphthyridin-5-yl]-1H-pyrazol-1-yl}-1-(methylsulfonyl)azetidin-3-yl]acetonitrile], the pIC50 was 7.72 on TYK2, 5.86 on JAK1, below 5.00 at JAK3 and 6.79 at JAK2.

With `CCS(=O)(=O)N1CC(CC#N)(n2ccc(-c3nc(-c4cnn(C)c4)cc4ncccc34)n2)C1` [Example 105, [1-(ethylsulfonyl)-3-{3-[7-(1-methyl-1H-pyrazol-4-yl)-1,6-naphthyridin-5-yl]-1H-pyrazol-1-yl}azetidin-3-yl]acetonitrile], the negative-log IC50 (pIC50) on TYK2 is 7.41; on JAK1, 5.87; at JAK3 it was 5.09; on JAK2, 6.76.
